# Reference: patent publication US9776979B2, “EBI2 modulators” (Sanford-Burnham Medical Research Institute, priority 2013, dated 2017)
# Target: EBI2 (Homo sapiens, UniProt P32249)
# Assay: Cell-based luminescent assay (EBI2 modulation)
# Conditions: not given
# Summary of the method: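 Cells plated overnight at 37° C, then exposed to compound at 4-5 uM final with 80 nM 7a,25-OHC agonist for 60 min at 37° C. Luminescence read after 60 min detection at 25° C in the dark; values normalized to neutral and stimulator controls and plate-pattern corrected.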
# EBI2, sequence (P32249 whole entry): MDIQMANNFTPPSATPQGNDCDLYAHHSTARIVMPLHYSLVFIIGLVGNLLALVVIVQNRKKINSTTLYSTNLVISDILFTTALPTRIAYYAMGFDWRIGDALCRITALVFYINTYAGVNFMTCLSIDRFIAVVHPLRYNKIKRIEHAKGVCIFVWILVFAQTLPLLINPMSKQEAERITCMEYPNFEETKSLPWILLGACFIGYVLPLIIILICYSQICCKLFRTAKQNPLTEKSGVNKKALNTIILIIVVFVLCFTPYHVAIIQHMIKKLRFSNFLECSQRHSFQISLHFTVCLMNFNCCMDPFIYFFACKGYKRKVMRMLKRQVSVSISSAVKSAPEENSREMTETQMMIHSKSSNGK
row,Molecule,IC50 [nM]
1,"O=C(/C=C/c1ccc(Br)cc1)N1CCN(Cc2ccc(Cl)cc2)CC1 [Compound D1, (E)-3-(4-bromophenyl)-1-(4-(4-chlorobenzyl)piperazin-1-yl) prop-2-en-1-one]",< 100

# Same assay, conditions: cell-based luminescence; 7a,25-OHC final assay concentration 80 nM; 60 minutes incubation; read-out: IC50
row,Molecule,IC50 [nM]
1,"O=C(C=Cc1ccc2c(c1)OCO2)N1CCN(C(=O)c2ccc(-c3nnn[nH]3)cc2)CC1 [Compound C457, 3-(2H-benzo[3,4-d]1,3-dioxolan-5-yl)-1-{4-[(4-(1H-1,2,3,4-tetraazol-5-yl)phenyl)carbonyl]piperazinyl}prop-2-en-1-one]",100 to 500
2,"O=C(C=Cc1ccc2c(c1)OCO2)N1CCN(Cc2ccc(F)cc2)CC1 [Compound C463, 3-(2H-benzo[3,4-d]1,3-dioxolan-5-yl)-1-{4-[(4-fluorophenyl)methyl]piperazinyl}prop-2-en-1-one]",100 to 500
3,"O=C(c1cnc2ccccc2c1)N1CCN(Cc2ccc(Cl)cc2)CC1 [Compound C464, 4-[(4-chlorophenyl)methyl]piperazinyl 3-quinolyl ketone]",100 to 500
4,"O=C(c1ccc(Br)cc1)N1CCN(Cc2ccc(Cl)cc2)CC1 [Compound C472, 4-bromophenyl 4-[(4-chlorophenyl)methyl]piperazinyl ketone]",100 to 500
5,"COc1ccc(CN2CCN(C(=O)C#Cc3cccc(Cl)c3)CC2)cc1 [Compound C473, 3-(3-chlorophenyl)-1-{4-[(4-methoxyphenyl)methyl]piperazinyl}prop-2-yn-1-one]",100 to 500
6,"O=C(Nc1cccc(I)c1)N1CCN(C(=O)c2cc3cc(Cl)ccc3[nH]2)CC1 [Compound C474, {4-[(5-chloroindol-2-yl)carbonyl]piperazinyl}-N-(3-iodophenyl)carboxamide]",100 to 500
7,"O=C(C#Cc1ccccc1C(F)(F)F)N1CCN(Cc2ccc(C(F)(F)F)cc2)CC1 [Compound C475, 3-[2-(trifluoromethyl)phenyl]-1-(4-{[4-(trifluoromethyl)phenyl]methyl}piperazinyl)prop-2-yn-1-one]",100 to 500
8,"O=C(c1cc2cc(Cl)ccc2[nH]1)N1CCN(c2ccccc2F)CC1 [Compound C476, 5-chloroindol-2-yl 4-(2-fluorophenyl)piperazinyl ketone]",100 to 500
9,"O=C(Nc1ccc(F)cc1F)N1CCN(C(=O)c2cc3cc(Cl)ccc3[nH]2)CC1 [Compound C477, N-(2,4-difluorophenyl){4-[(5-chloroindol-2-yl)carbonyl]piperazinyl}carboxamide]",100 to 500
10,"O=C(c1cc2ccccn2n1)N1CCN(C(c2ccccc2)c2ccccc2)CC1 [Compound C478, 4-(diphenylmethyl)piperazinyl 8-hydropyrazolo[1,5-a]pyridin-2-yl ketone]",100 to 500
11,"O=C(C=Cc1ccc2c(c1)OCO2)N1CCN(C(=O)c2ccc(F)cc2C(F)(F)F)CC1 [Compound C479, 3-(2H-benzo[3,4-d]1,3-dioxolan-5-yl)-1-(4-{[4-fluoro-2-(trifluoromethyl)phenyl]carbonyl}piperazinyl)prop-2-en-1-one]",100 to 500
12,"Cc1ccccc1/C=C/C(=O)N1CCN(S(=O)(=O)c2ccc(C(C)(C)C)cc2)CC1 [Compound C480, (2E)-1-(4-{[4-(tert-butyl)phenyl]sulfonyl}piperazinyl)-3-(2-methylphenyl)prop-2-en-1-one]",100 to 500

# The next lines start with the values.
row,IC50 [nM],Molecule
1,100 to 500,"O=C(/C=C/c1ccccc1F)N1CCN(S(=O)(=O)c2ccc(Br)cc2)CC1 [Compound C455, (2E)-1-{4-[(4-bromophenyl)sulfonyl]piperazinyl}-3-(2-fluorophenyl)prop-2-en-1-one]"
2,100 to 500,"O=C(Nc1ccc(C(F)(F)F)cc1)N1CCN(C(=O)c2cc3cc(Cl)ccc3[nH]2)CC1 [Compound C456, {4-[(5-chloroindol-2-yl)carbonyl]piperazinyl}-N-[4-(trifluoromethyl)phenyl]carboxamide]"
3,100 to 500,"O=C(O)c1ccc(C(=O)N2CCN(C(=O)c3cc4cc(Cl)ccc4[nH]3)CC2)cc1 [Compound C460, 4-({4-[(5-chloroindol-2-yl)carbonyl]piperazinyl}carbonyl)benzoic acid]"
4,100 to 500,"O=C(C#Cc1ccc(F)cc1)N1CCN(Cc2ccc(Cl)cc2)CC1 [Compound C461, 1-{4-[(4-chlorophenyl)methyl]piperazinyl}-3-(4-fluorophenyl)prop-2-yn-1-one]"
5,100 to 500,"Cc1nc2ccc(C(=O)N3CCN(C(c4ccccc4)c4ccccc4)CC3)cc2[nH]1 [Compound C465, 4-(diphenylmethyl)piperazinyl 2-methylbenzimidazol-5-yl ketone]"
6,100 to 500,"O=C(c1cc2ccccc2cn1)N1CCN(C(c2ccccc2)c2ccccc2)CC1 [Compound C468, 4-(diphenylmethyl)piperazinyl 3-isoquinolyl ketone]"
7,100 to 500,"O=C(C#Cc1ccccc1C(F)(F)F)N1CCN(Cc2ccc(Cl)cc2)CC1 [Compound C469, 1-{4-[(4-chlorophenyl)methyl]piperazinyl}-3-[2-(trifluoromethyl)phenyl]prop-2-yn-1-one]"
8,100 to 500,"O=C(c1cc2cc(Cl)ccc2[nH]1)N1CCN(c2ccc(F)cc2)CC1 [Compound C470, 5-chloroindol-2-yl 4-(4-fluorophenyl)piperazinyl ketone]"
9,< 100,"O=C(/C=C/c1ccc(Cl)c(Cl)c1)N1CCN(Cc2ccc(C(F)(F)F)cc2)CC1 [Compound D3, (2E)-3-(3,4-dichlorophenyl)-1-(4-{[4-(trifluoromethyl)phenyl]methyl}piperazinyl)prop-2-en-1-one]"
10,< 100,"Cc1cc(C)c(S(=O)(=O)N2CCN(C(=O)/C=C/c3ccc(Br)cc3)CC2)c(C)c1 [Compound E1, (2E)-3-(4-bromophenyl)-1-{4-[(2,4,6-trimethylphenyl)sulfonyl]piperazinyl} prop-2-en-1-one]"
11,< 100,"O=C(/C=C/c1ccc(F)cc1)N1CCN(S(=O)(=O)c2ccc(Br)cc2)CC1 [Compound E2, (2E)-1-{4-[(4-bromophenyl)sulfonyl]piperazinyl}-3-(4-fluorophenyl) prop-2-en-1-one]"
12,< 100,"O=C(/C=C/c1ccc(F)cc1)N1CCN(S(=O)(=O)CCc2ccccc2)CC1 [Compound E3, (2E)-3-(4-fluorophenyl)-1-{4-[(2-phenylethyl)sulfonyl]piperazinyl}prop-2-en-1-one]"
13,< 100,"COc1ccc(/C=C/C(=O)N2CCN(S(=O)(=O)c3ccccc3)CC2)cc1 [Compound E4, (2E)-3-(4-methoxyphenyl)-1-[4-(phenylsulfonyl)piperazinyl]prop-2-en-1-one]"
14,< 100,"CC(=O)c1ccc(S(=O)(=O)N2CCN(C(=O)/C=C/c3ccc(Br)cc3F)CC2)cc1 [Compound E5, 4-({4-[(2E)-3-(4-bromo-2-fluorophenyl)prop-2-enoyl]piperazinyl}sulfonyl)-1-acetylbenzene]"
15,< 100,O=C(/C=C/c1ccc(Br)cc1)N1CCC(CNCc2ccc(C(F)(F)F)cc2)CC1 [Compound F2]
16,< 100,"O=C(NCC1CCN(C(=O)/C=C/c2ccc(Br)cc2)CC1)c1ccc(C(F)(F)F)cc1 [Compound F3, (E)-N-((1-(3-(4-bromophenyl)acryloyl)piperidin-4-yl)methyl)-4-(trifluoromethyl)benzamide]"
17,< 100,(2E)-1-(4-{[4-(tert-butyl)phenyl]sulfonyl}piperazinyl)-3-(4-bromophenyl)prop-2-en-1-one [Compound C150]
18,< 100,"(2E)-1-[4-(2-(1,3-dihydroisobenzofuran-5-yl)ethyl)piperazinyl]-3-phenylprop-2-en-1-one [Compound C362]"
